Assay results reported in patent publication US7138361B2, “Herbicidal heterocycles” (E. I. du Pont de Nemours and Company, priority 2000, dated 2006).

How the values were obtained:
Assay type in all cases: in vivo
[1] = test system: Surinam grass (Brachiaria decumbens); experiment: Test B postemergence; details: 13 to 15 days
Procedure, shortened: (§1)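 Post-treatment, species sat 13–15 days under greenhouse conditions before visual scoring against controls, 0 (no effect) through 100 (complete control). Application preemergence to sown seeds or postemergence at 1- to 4-leaf stage, using a non-phytotoxic solvent/surfactant formulation.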

[2] = test system: barnyardgrass (Echinochloa crus-galli); experiment: Test B postemergence; details: 13 to 15 days
Procedure, shortened: as §1

[3] = test system: blackgrass (Alopecurus myosuroides); experiment: Test B postemergence; details: 13 to 15 days
Procedure, shortened: as §1

[4] = test system: cocklebur (Xanthium strumarium); experiment: Test B postemergence; details: 13 to 15 days
Procedure, shortened: as §1

corn (Zea mays) [5] = experiment: Test B postemergence; details: 13 to 15 days
Procedure, shortened: as §1

[6] = test system: crabgrass (Digitaria sanguinalis); experiment: Test B postemergence; details: 13 to 15 days
Procedure, shortened: as §1

[7] = test system: giant foxtail (Setaria faberii); experiment: Test B postemergence; details: 13 to 15 days
Procedure, shortened: as §1

[8] = test system: lambsquarters (Chenopodium album); experiment: Test B postemergence; details: 13 to 15 days
Procedure, shortened: as §1

[9] = test system: morning glory (Ipomoea hederacea); experiment: Test B postemergence; details: 13 to 15 days
Procedure, shortened: as §1

[10] = test system: pigweed (Amaranthus retroflexus); experiment: Test B postemergence; details: 13 to 15 days
Procedure, shortened: as §1

[11] = test system: velvetleaf (Abutilon theophrasti); experiment: Test B postemergence; details: 13 to 15 days
Procedure, shortened: as §1

[12] = test system: wheat (Triticum aestivum); experiment: Test B postemergence; details: 13 to 15 days
Procedure, shortened: as §1

wild oat (Avena fatua) = experiment: Test B postemergence; details: 13 to 15 days
Procedure, shortened: as §1

[13] = test system: Surinam grass (Brachiaria decumbens); experiment: Test B preemergence
Procedure, shortened: as §1

[14] = test system: barnyardgrass (Echinochloa crus-galli); experiment: Test B preemergence
Procedure, shortened: as §1

[15] = test system: cocklebur (Xanthium strumarium); experiment: Test B preemergence
Procedure, shortened: as §1

corn (Zea mays) [16] = experiment: Test B preemergence
Procedure, shortened: as §1

[17] = test system: crabgrass (Digitaria sanguinalis); experiment: Test B preemergence
Procedure, shortened: as §1

[18] = test system: giant foxtail (Setaria faberii); experiment: Test B preemergence
Procedure, shortened: as §1

[19] = test system: lambsquarters (Chenopodium album); experiment: Test B preemergence
Procedure, shortened: as §1

[20] = test system: morning glory (Ipomoea hederacea); experiment: Test B preemergence
Procedure, shortened: as §1

[21] = test system: pigweed (Amaranthus retroflexus); experiment: Test B preemergence
Procedure, shortened: as §1

rice (Oryza saliva) [22] = experiment: Test B preemergence
Procedure, shortened: as §1

[23] = test system: velvetleaf (Abutilon theophrasti); experiment: Test B preemergence
Procedure, shortened: as §1

[24] = test system: barnyardgrass (Echinochloa crus-galli); experiment: Test C flooded paddy test; details: for Barnyardgrass plant response rating: Flooded Paddy, scale 0 to 100, 0 no effect, 100 complete control; for Plant response rating, Barnyardgrass: flooded paddy test, scale 0 to 100 (0 no effect, 100 complete control)
Procedure, shortened: (§2)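 Flooded paddy, 2-leaf stage at treatment. Readout: visual % control vs untreated, 0–100, at 12–14 d in greenhouse.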

[25] = test system: duck salad (Heteranthera limosa); experiment: Test C flooded paddy test; details: for Ducksalad plant response rating: Flooded Paddy, scale 0 to 100, 0 no effect, 100 complete control; for Plant response rating, Ducksalad: flooded paddy test, scale 0 to 100 (0 no effect, 100 complete control)
Procedure, shortened: as §2

rice (Oryza saliva) [26] = experiment: Test C flooded paddy test; details: for Rice plant response rating: Flooded Paddy, scale 0 to 100, 0 no effect, 100 complete control; for Plant response rating, Rice: flooded paddy test, scale 0 to 100 (0 no effect, 100 complete control)
Procedure, shortened: as §2

[27] = test system: smallflower flatsedge (Cyperus difformis); experiment: Test C flooded paddy test; details: for Flatsedge plant response rating: Flooded Paddy, scale 0 to 100, 0 no effect, 100 complete control; for Plant response rating, Flatsedge: flooded paddy test, scale 0 to 100 (0 no effect, 100 complete control)
Procedure, shortened: as §2

[28] = Rate 125 g/ha, scale 0 (no effect) to 100 (complete control)
[29] = Rate 500 g/ha, scale 0 to 100, 0 is no effect, 100 is complete control
[30] = Preemergence, Rate 500 g/ha, scale 0 to 100, 0 no effect, 100 complete control
[31] = preemergence, Rate 125 g/ha, scale of 0 to 100 where 0 is no effect and 100 is complete control, 13 to 15 days

`CC(C)(C)c1ccn(C2CCN(c3cccc(OC(F)(F)C(F)F)c3)C2=O)n1` (stereo not drawn) [Compound 48] was tested, and the “Plant response rating, Surinam grass” value [1, 28] was 0, the “Plant response rating, Surinam grass” value [1, 29] was 0 and the “Plant response rating, Barnyardgrass” value [2, 28] was 0. For the same molecule, the “Plant response rating, Barnyardgrass” value [2, 29] was 0, the “Plant response rating, Blackgrass” value [3, 28] was 0 and the “Plant response rating, Blackgrass” value [3, 29] was 0. For the same molecule, the “Plant response rating, Cocklebur” value [4, 28] was 0, the “Plant response rating, Cocklebur” value [4, 29] was 0 and the “Plant response rating, Corn” value (corn (Zea mays) [5]; [28]) was 0. For the same molecule, the “Plant response rating, Corn” value (corn (Zea mays) [5]; [29]) was 0, the “Plant response rating, Crabgrass” value [6, 28] was 0 and the “Plant response rating, Crabgrass” value [6, 29] was 0. For the same molecule, the “Plant response rating, Foxtail, Giant” value [7, 28] was 0, the “Plant response rating, Foxtail, Giant” value [7, 29] was 0 and the “Plant response rating, Lambsquarters” value [8, 28] was 0. For the same molecule, the “Plant response rating, Lambsquarters” value [8, 29] was 80, the “Plant response rating, Morningglory” value [9, 28] was 0 and the “Plant response rating, Morningglory” value [9, 29] was 0. The “Plant response rating, Pigweed” value [10, 28] was 0, the “Plant response rating, Pigweed” value [10, 29] was 0 and the “Plant response rating, Velvetleaf” value [11, 28] was 0. The “Plant response rating, Velvetleaf” value [11, 29] was 0, the “Plant response rating, Wheat” value [12, 28] was 0 and the “Plant response rating, Wheat” value [12, 29] was 0. For the same molecule, the “Plant response rating, Wild Oat” value (wild oat (Avena fatua); [28]) was 0, the “Plant response rating, Wild Oat” value (wild oat (Avena fatua); [29]) was 0 and the “Plant response rating, Surinam grass” value [13, 30] was 0. The “Plant response rating, Surinam grass” value [13, 31] was 0, the “Plant response rating, Barnyardgrass” value [14, 30] was 0 and the “Plant response rating, Barnyardgrass” value [14, 31] was 0. The “Plant response rating, Cocklebur” value [15, 30] was 0, the “Plant response rating, Cocklebur” value [15, 31] was 0 and the “Plant response rating, Corn” value (corn (Zea mays) [16]; [30]) was 0. The “Plant response rating, Corn” value (corn (Zea mays) [16]; [31]) was 0, the “Plant response rating, Crabgrass” value [17, 30] was 80 and the “Plant response rating, Crabgrass” value [17, 31] was 0. The “Plant response rating, Foxtail, Giant” value [18, 30] was 0, the “Plant response rating, Foxtail, Giant” value [18, 31] was 0 and the “Plant response rating, Lambsquarters” value [19, 30] was 100. The “Plant response rating, Lambsquarters” value [19, 31] was 100, the “Plant response rating, Morningglory” value [20, 30] was 0 and the “Plant response rating, Morningglory” value [20, 31] was 0. The “Plant response rating, Pigweed” value [21, 30] was 0, the “Plant response rating, Pigweed” value [21, 31] was 0 and the “Plant response rating, Rice” value (rice (Oryza saliva) [22]; [30]) was 0. For the same molecule, the “Plant response rating, Rice” value (rice (Oryza saliva) [22]; [31]) was 0, the “Plant response rating, Velvetleaf” value [23, 30] was 0 and the “Plant response rating, Velvetleaf” value [23, 31] was 0. The “Barnyardgrass plant response rating” value ([24]; Rate 250 g/ha) was 100, the “Barnyardgrass plant response rating” value ([24]; Rate 500 g/ha) was 100 and the “Plant response rating, Barnyardgrass” value ([24]; Rate 62 g/ha) was 20. For the same molecule, the “Plant response rating, Barnyardgrass” value ([24]; Rate 125 g/ha) was 40, the “Ducksalad plant response rating” value ([25]; Rate 250 g/ha) was 70 and the “Ducksalad plant response rating” value ([25]; Rate 500 g/ha) was 90. For the same molecule, the “Plant response rating, Ducksalad” value ([25]; Rate 62 g/ha) was 0, the “Plant response rating, Ducksalad” value ([25]; Rate 125 g/ha) was 20 and the “Rice plant response rating” value (rice (Oryza saliva) [26]; Rate 250 g/ha) was 20. For the same molecule, the “Rice plant response rating” value (rice (Oryza saliva) [26]; Rate 500 g/ha) was 50, the “Plant response rating, Rice” value (rice (Oryza saliva) [26]; Rate 62 g/ha) was 0 and the “Plant response rating, Rice” value (rice (Oryza saliva) [26]; Rate 125 g/ha) was 0. The “Flatsedge plant response rating” value ([27]; Rate 250 g/ha) was 100, the “Flatsedge plant response rating” value ([27]; Rate 500 g/ha) was 100 and the “Plant response rating, Flatsedge” value ([27]; Rate 62 g/ha) was 90. For the same molecule, the “Plant response rating, Flatsedge” value ([27]; Rate 125 g/ha) was 90.
With `CC(C)(C)c1ccn(C2OCN(c3cccc(OC(F)(F)F)c3)C2=O)n1` (stereo not drawn) [Compound 66] the “Plant response rating, Surinam grass” value [1, 28] was 0, the “Plant response rating, Surinam grass” value [1, 29] was 30 and the “Plant response rating, Barnyardgrass” value [2, 28] was 100. For the same molecule, the “Plant response rating, Barnyardgrass” value [2, 29] was 100, the “Plant response rating, Blackgrass” value [3, 28] was 0 and the “Plant response rating, Blackgrass” value [3, 29] was 0. For the same molecule, the “Plant response rating, Cocklebur” value [4, 28] was 0, the “Plant response rating, Cocklebur” value [4, 29] was 20 and the “Plant response rating, Corn” value (corn (Zea mays) [5]; [28]) was 0. The “Plant response rating, Corn” value (corn (Zea mays) [5]; [29]) was 0, the “Plant response rating, Crabgrass” value [6, 28] was 30 and the “Plant response rating, Crabgrass” value [6, 29] was 100. For the same molecule, the “Plant response rating, Foxtail, Giant” value [7, 28] was 0, the “Plant response rating, Foxtail, Giant” value [7, 29] was 60 and the “Plant response rating, Lambsquarters” value [8, 28] was 90. For the same molecule, the “Plant response rating, Lambsquarters” value [8, 29] was 90, the “Plant response rating, Morningglory” value [9, 28] was 0 and the “Plant response rating, Morningglory” value [9, 29] was 0. For the same molecule, the “Plant response rating, Pigweed” value [10, 28] was 0, the “Plant response rating, Pigweed” value [10, 29] was 0 and the “Plant response rating, Velvetleaf” value [11, 28] was 20. The “Plant response rating, Velvetleaf” value [11, 29] was 20, the “Plant response rating, Wheat” value [12, 28] was 0 and the “Plant response rating, Wheat” value [12, 29] was 0. The “Plant response rating, Wild Oat” value (wild oat (Avena fatua); [28]) was 0, the “Plant response rating, Wild Oat” value (wild oat (Avena fatua); [29]) was 0 and the “Plant response rating, Surinam grass” value [13, 30] was 20. The “Plant response rating, Surinam grass” value [13, 31] was 20, the “Plant response rating, Barnyardgrass” value [14, 30] was 100 and the “Plant response rating, Barnyardgrass” value [14, 31] was 100. The “Plant response rating, Cocklebur” value [15, 30] was 0, the “Plant response rating, Corn” value (corn (Zea mays) [16]; [30]) was 0 and the “Plant response rating, Corn” value (corn (Zea mays) [16]; [31]) was 0. The “Plant response rating, Crabgrass” value [17, 30] was 40, the “Plant response rating, Crabgrass” value [17, 31] was 0 and the “Plant response rating, Foxtail, Giant” value [18, 30] was 40. For the same molecule, the “Plant response rating, Foxtail, Giant” value [18, 31] was 20, the “Plant response rating, Lambsquarters” value [19, 30] was 100 and the “Plant response rating, Lambsquarters” value [19, 31] was 100. For the same molecule, the “Plant response rating, Morningglory” value [20, 30] was 20, the “Plant response rating, Pigweed” value [21, 30] was 100 and the “Plant response rating, Pigweed” value [21, 31] was 100. The “Plant response rating, Rice” value (rice (Oryza saliva) [22]; [30]) was 20, the “Plant response rating, Rice” value (rice (Oryza saliva) [22]; [31]) was 0 and the “Plant response rating, Velvetleaf” value [23, 30] was 20. For the same molecule, the “Plant response rating, Velvetleaf” value [23, 31] was 0, the “Barnyardgrass plant response rating” value ([24]; Rate 250 g/ha) was 100 and the “Barnyardgrass plant response rating” value ([24]; Rate 500 g/ha) was 100. The “Plant response rating, Barnyardgrass” value ([24]; Rate 62 g/ha) was 70, the “Plant response rating, Barnyardgrass” value ([24]; Rate 125 g/ha) was 100 and the “Ducksalad plant response rating” value ([25]; Rate 250 g/ha) was 100. The “Ducksalad plant response rating” value ([25]; Rate 500 g/ha) was 100, the “Plant response rating, Ducksalad” value ([25]; Rate 62 g/ha) was 30 and the “Plant response rating, Ducksalad” value ([25]; Rate 125 g/ha) was 90. The “Rice plant response rating” value (rice (Oryza saliva) [26]; Rate 250 g/ha) was 50, the “Rice plant response rating” value (rice (Oryza saliva) [26]; Rate 500 g/ha) was 100 and the “Plant response rating, Rice” value (rice (Oryza saliva) [26]; Rate 62 g/ha) was 0. The “Plant response rating, Rice” value (rice (Oryza saliva) [26]; Rate 125 g/ha) was 0, the “Flatsedge plant response rating” value ([27]; Rate 250 g/ha) was 100 and the “Flatsedge plant response rating” value ([27]; Rate 500 g/ha) was 100. For the same molecule, the “Plant response rating, Flatsedge” value ([27]; Rate 62 g/ha) was 100 and the “Plant response rating, Flatsedge” value ([27]; Rate 125 g/ha) was 100.
